{"source": "ChEMBL document CHEMBL4368857", "about": "“New amyloid beta-disaggregating agents: synthesis, pharmacological evaluation, crystal structure and molecular docking of N-(4-((7-chloroquinolin-4-yl)oxy)-3-ethoxybenzyl)amines” (Medchemcomm, 2018)", "key": {"[1]": {"test": "Antioxidant activity assessed as trolox equivalent of AAPH-induced radical scavenging activity at 1 to 8 uM pretreated for 15 mins followed by AAPH addition measured at 1 min interval for 80 mins by ORAC-FL assay", "assay_type": "functional"}, "[2]": {"molecular_target": "T1, Amyloid-beta precursor protein (Homo sapiens, UniProt P05067)", "T1 sequence (P05067 whole entry)": "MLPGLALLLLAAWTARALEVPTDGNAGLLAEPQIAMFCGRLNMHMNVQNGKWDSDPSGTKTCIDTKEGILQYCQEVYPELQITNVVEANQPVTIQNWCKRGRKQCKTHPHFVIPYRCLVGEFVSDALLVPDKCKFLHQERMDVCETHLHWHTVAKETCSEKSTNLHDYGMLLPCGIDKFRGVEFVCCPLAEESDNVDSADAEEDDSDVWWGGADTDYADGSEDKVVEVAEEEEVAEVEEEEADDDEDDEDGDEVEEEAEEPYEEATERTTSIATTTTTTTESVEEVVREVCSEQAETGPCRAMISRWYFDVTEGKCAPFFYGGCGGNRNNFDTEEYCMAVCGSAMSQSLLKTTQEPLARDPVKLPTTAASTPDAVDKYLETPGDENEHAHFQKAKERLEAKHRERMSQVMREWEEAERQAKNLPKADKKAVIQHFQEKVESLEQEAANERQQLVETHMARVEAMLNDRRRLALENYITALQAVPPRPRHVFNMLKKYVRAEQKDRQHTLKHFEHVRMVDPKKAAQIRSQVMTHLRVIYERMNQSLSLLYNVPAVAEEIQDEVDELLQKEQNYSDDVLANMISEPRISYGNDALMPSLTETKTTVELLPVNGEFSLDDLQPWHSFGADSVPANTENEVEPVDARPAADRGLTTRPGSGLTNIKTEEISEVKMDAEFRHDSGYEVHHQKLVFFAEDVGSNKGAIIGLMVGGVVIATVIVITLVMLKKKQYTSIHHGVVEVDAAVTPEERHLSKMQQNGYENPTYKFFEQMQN", "test": "Inhibition of HFIP-pretreated amyloid beta (1 to 42) (unknown origin) self-induced aggregation at 50 uM after 48 hrs by thioflavin T-based fluorometric assay relative to control"}, "[3]": {"test": "Metal chelating activity assessed as Al3+-compound complex formation at 30 uM after 30 mins by UV-Vis spectroscopic method"}, "[4]": {"test": "Metal chelating activity assessed as stoichiometric ratio of Cu2+-compound complex at 30 uM after 30 mins by Job plot analysis"}, "[5]": {"molecular_target": "T1, Amyloid-beta precursor protein", "test": "Inhibition of HFIP-pretreated amyloid beta (1 to 42) (unknown origin) self-induced aggregation at 25 uM after 48 hrs by thioflavin T-based fluorometric assay relative to control"}, "[6]": {"molecular_target": "T1, Amyloid-beta precursor protein", "test": "Inhibition of HFIP-pretreated amyloid beta (1 to 42) (unknown origin) self-induced aggregation after 48 hrs by thioflavin T-based fluorometric assay"}, "[7]": {"test": "Metal chelating activity assessed as Cu2+-compound complex formation by measuring shift in maximum absorption wavelength at 30 uM after 30 mins by UV-Vis spectroscopic method"}, "[8]": {"test": "Metal chelating activity assessed as Fe2+-compound complex formation by measuring shift in maximum absorption wavelength at 30 uM after 30 mins by UV-Vis spectroscopic method"}, "[9]": {"test": "Inhibition of Cu2+-induced amyloid beta (1 to 42 residues) (unknown origin) aggregation at 50 uM after 24 hrs by thioflavin T-based fluorometric assay relative to control"}, "[10]": {"molecular_target": "T1, Amyloid-beta precursor protein", "test": "Inhibition of HFIP-pretreated amyloid beta (1 to 42) (unknown origin) self-induced aggregation at 75 uM after 48 hrs by thioflavin T-based fluorometric assay relative to control"}, "[11]": {"test": "Metal chelating activity assessed as Zn2+-compound complex formation at 30 uM after 30 mins by UV-Vis spectroscopic method"}, "[12]": {"molecular_target": "T1, Amyloid-beta precursor protein", "test": "Disaggregation of self-induced amyloid beta (1 to 42) (unknown origin) assessed as appearance of sparse fibrils at 50 uM after 48 hrs by transmission electron microscopic analysis"}, "[13]": {"molecular_target": "Acetylcholinesterase (Electrophorus electricus) (UniProt O42275)", "sequence (O42275 24-633 limits assumed)": "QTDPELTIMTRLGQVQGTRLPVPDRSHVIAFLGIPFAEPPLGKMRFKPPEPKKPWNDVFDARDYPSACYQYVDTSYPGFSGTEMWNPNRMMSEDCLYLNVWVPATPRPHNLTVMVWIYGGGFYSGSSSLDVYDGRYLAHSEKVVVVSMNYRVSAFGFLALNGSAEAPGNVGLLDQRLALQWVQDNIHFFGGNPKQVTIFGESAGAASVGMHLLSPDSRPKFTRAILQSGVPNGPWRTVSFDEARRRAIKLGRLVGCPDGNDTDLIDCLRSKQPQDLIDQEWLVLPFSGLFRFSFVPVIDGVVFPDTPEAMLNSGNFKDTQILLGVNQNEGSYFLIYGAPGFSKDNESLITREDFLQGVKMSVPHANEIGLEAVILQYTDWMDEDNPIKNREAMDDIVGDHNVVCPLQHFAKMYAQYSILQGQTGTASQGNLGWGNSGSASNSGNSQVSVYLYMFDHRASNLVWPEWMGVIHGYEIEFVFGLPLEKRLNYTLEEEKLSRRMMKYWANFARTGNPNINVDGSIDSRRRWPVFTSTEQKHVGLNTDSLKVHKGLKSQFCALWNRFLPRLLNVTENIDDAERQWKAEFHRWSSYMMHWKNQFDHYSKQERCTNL", "test": "Potency index, ratio of donepezil effect to test compound effect for inhibition of electric eel AChE-induced amyloid beta (1 to 42) aggregation"}, "[14]": {"test": "Metal chelating activity assessed as Zn2+-compound complex formation by measuring shift in maximum absorption wavelength at 30 uM after 30 mins by UV-Vis spectroscopic method"}, "[15]": {"test": "Metal chelating activity assessed as Al3+-compound complex formation by measuring shift in maximum absorption wavelength at 30 uM after 30 mins by UV-Vis spectroscopic method"}}, "note": "Active and inactive are the calls of the source. No cut-off for these calls is given here."}
{"smiles": "CCOc1cc(CNc2ccccn2)ccc1Oc1ccnc2cc(Cl)ccc12", "values": [{"measurement": "Activity (umolequiv/umol)", "setting": "[1]", "value": 0.55}, {"measurement": "inhibition", "setting": "[2]", "value": 41.5, "unit": "%"}]}
{"smiles": "CCOc1cc(CNc2ccccc2)ccc1Oc1ccnc2cc(Cl)ccc12", "values": [{"measurement": "Activity (umolequiv/umol)", "setting": "[1]", "value": 2.72}, {"measurement": "Activity", "setting": "[3]", "value": "Active"}, {"measurement": "Ratio", "setting": "[4]", "value": 0.5}, {"measurement": "inhibition", "setting": "[5]", "value": 37.1, "unit": "%"}, {"measurement": "IC50", "setting": "[6]", "value": 44.5, "unit": "µM"}, {"measurement": "Activity", "setting": "[7]", "value": 305, "unit": "nm"}, {"measurement": "Activity", "setting": "[8]", "value": 305, "unit": "nm"}, {"measurement": "inhibition", "setting": "[9]", "value": 22.4, "unit": "%"}, {"measurement": "inhibition", "setting": "[10]", "value": 3.37, "unit": "%"}, {"measurement": "inhibition", "setting": "[2]", "value": 53.6, "unit": "%"}, {"measurement": "Activity", "setting": "[11]", "value": "Active"}, {"measurement": "Activity", "setting": "[12]", "value": "Active"}, {"measurement": "Ratio", "setting": "[13]", "value": "> 2"}]}
{"smiles": "CCOc1cc(CNc2cccc(C)n2)ccc1Oc1ccnc2cc(Cl)ccc12", "values": [{"measurement": "Activity (umolequiv/umol)", "setting": "[1]", "value": 0.87}, {"measurement": "inhibition", "setting": "[2]", "value": 41.6, "unit": "%"}]}
{"smiles": "COc1cc(/C=C/C(=O)CC(=O)/C=C/c2ccc(O)c(OC)c2)ccc1O", "values": [{"measurement": "inhibition", "setting": "[9]", "value": 52.9, "unit": "%"}]}
{"smiles": "CCOc1cc(CNc2ccc(OC)cc2)ccc1Oc1ccnc2cc(Cl)ccc12", "values": [{"measurement": "Activity (umolequiv/umol)", "setting": "[1]", "value": 1.95}, {"measurement": "Ratio", "setting": "[4]", "value": 0.8}, {"measurement": "inhibition", "setting": "[5]", "value": 26.7, "unit": "%"}, {"measurement": "IC50", "setting": "[6]", "value": 46.4, "unit": "µM"}, {"measurement": "Activity", "setting": "[7]", "value": 304, "unit": "nm"}, {"measurement": "Activity", "setting": "[8]", "value": 305, "unit": "nm"}, {"measurement": "inhibition", "setting": "[9]", "value": 32.7, "unit": "%"}, {"measurement": "inhibition", "setting": "[10]", "value": 6.89, "unit": "%"}, {"measurement": "Activity", "setting": "[14]", "value": 304, "unit": "nm"}, {"measurement": "Activity", "setting": "[15]", "value": 304, "unit": "nm"}, {"measurement": "inhibition", "setting": "[2]", "value": 53.7, "unit": "%"}, {"measurement": "Activity", "setting": "[12]", "value": "Active"}, {"measurement": "Ratio", "setting": "[13]", "value": "> 2"}]}
{"smiles": "CCOc1cc(CNc2ccc(F)cc2F)ccc1Oc1ccnc2cc(Cl)ccc12", "values": [{"measurement": "Activity (umolequiv/umol)", "setting": "[1]", "value": 2.37}, {"measurement": "inhibition", "setting": "[2]", "value": 27.8, "unit": "%"}]}
{"smiles": "CCOc1cc(CNc2cccc(C(F)(F)F)c2)ccc1Oc1ccnc2cc(Cl)ccc12", "values": [{"measurement": "Activity (umolequiv/umol)", "setting": "[1]", "value": 1.56}, {"measurement": "inhibition", "setting": "[2]", "value": 30, "unit": "%"}]}
{"smiles": "CCOc1cc(CNc2ccc(C)cc2)ccc1Oc1ccnc2cc(Cl)ccc12", "values": [{"measurement": "Activity (umolequiv/umol)", "setting": "[1]", "value": 2.28}, {"measurement": "inhibition", "setting": "[2]", "value": 46.8, "unit": "%"}]}
